Values after ≈ are worked out from the molar mass of the structure shown. Structures can show the parent of a compound that is named as a salt. Where two headings read alike, the source gives them in different places.
Legend:
[1] = Solubility of 3-DM free base and 3-DM Glycolate Type A in IPA and IPA/H2O (19:1, v/v) at 5, 20, 40, 60° C., 24 hrs; assay type: physicochemical
[2] = Batch 810081-28-B
[3] = cited from earlier work
[4] = Approximate solubility of amorphous 3-DM free base starting material in 27 solvent systems at RT; assay type: physicochemical
Protocol: The approximate solubility of the free base starting material was determined in 27 solvent systems at RT. Approximate 2 mg of material was added into a 3-mL glass vial. […] The solubility results summarized in Table 10 were used to guide the solvent selection in salt screening design.

[5] = assay type: physicochemical; conditions: for solubility: organic solvent or mixture, read-out: Approximate solubility
Protocol: In the first batch (100 mg scale), pure IPA was used as solvent. […] Detailed preparation procedures for the 3 scaled-up batches can be found below.

[6] = Background statements on solubility and gel formation in aqueous solution; assay type: physicochemical

For `[2H]C12CC(C(=COC)C(=O)OC)C(CC)CN1CCc1c2[nH]c2cccc(OC)c12` (centres unmarked) [3-DM Free Base Type A], the “Solubility in IPA/H2O (19:1, v/v) compared with IPA” value [1] was “higher than IPA” and the equilibrium solubility ([1]; IPA/H2O (19:1, v/v) at 60° C.) was 73.94 mg/mL.

`O=C(O)CO.[2H]C12CC(C(=COC)C(=O)OC)C(CC)CN1CCc1c2[nH]c2cccc(OC)c12` (centres unmarked) gave a D10 ([2]; sonication time 0 s) of 7.51 μm, a D50 ([2]; sonication time 0 s) of 19.96 μm and a D90 ([2]; sonication time 0 s) of 58.66 μm. The MV ([2]; sonication time 0 s) was 28.68 μm, the D10 ([2]; sonication time 30 s (30 Watt)) was 5.92 μm and the D50 ([2]; sonication time 30 s (30 Watt)) was 15.93 μm. It also gave a D90 ([2]; sonication time 30 s (30 Watt)) of 47.05 μm and an MV ([2]; sonication time 30 s (30 Watt)) of 22.77 μm.

For `CC[C@@H]1CN2CCc3c([nH]c4cccc(OC)c34)[C@H]2C[C@@H]1/C(=C\OC)C(=O)OC` (stereo in doubt) [mitragynine hydrochloride], the “Behaviour in aqueous solution” value ([3]; aqueous solution) is listed as “form a gel”.

For `[2H][C@@]12C[C@H](/C(=C\OC)C(=O)OC)[C@H](CC)CN1CCc1c2[nH]c2cccc(OC)c12` [3-DM free base, 3-deuteromitragynine], the solubility ([4]; organic solvent or mixture, thermodynamic from solid, 1,4-dioxane, RT) was > 42 mg/mL, the solubility ([4]; organic solvent or mixture, thermodynamic from solid, 2-MeTHF, RT) was > 48 mg/mL and the solubility ([4]; organic solvent or mixture, thermodynamic from solid, ACN, RT) was > 46 mg/mL. For the same compound, the solubility ([4]; organic solvent or mixture, thermodynamic from solid, Acetone, RT) was > 38 mg/mL, the solubility ([4]; organic solvent or mixture, thermodynamic from solid, Acetone/n-Heptane (1:1), RT) was > 38 mg/mL and the solubility ([4]; organic solvent or mixture, thermodynamic from solid, Acetone/n-Heptane (1:4), RT) was > 46 mg/mL. The solubility ([4]; organic solvent or mixture, thermodynamic from solid, Acetone/n-Heptane (1:9), RT) was 7.7 to 23 mg/mL (≈ 19.3 to 57.6 mM), the solubility ([4]; organic solvent or mixture, thermodynamic from solid, Acetone/n-Heptane (1:15), RT) was 4 to 6.7 mg/mL (≈ 10 to 16.8 mM) and the solubility ([4]; organic solvent or mixture, thermodynamic from solid, Acetone/n-Heptane (4:1), RT) was > 42 mg/mL. For the same compound, the solubility ([4]; organic solvent or mixture, thermodynamic from solid, CHCl3, RT) was > 46 mg/mL, the solubility ([4]; organic solvent or mixture, thermodynamic from solid, DCM, RT) was > 42 mg/mL and the solubility ([4]; organic solvent or mixture, thermodynamic from solid, DMAc, RT) was > 46 mg/mL. The solubility ([4]; organic solvent or mixture, thermodynamic from solid, DMSO, RT) was > 34 mg/mL, the solubility ([4]; organic solvent or mixture, thermodynamic from solid, EtOAc, RT) was > 40 mg/mL and the solubility ([4]; organic solvent or mixture, thermodynamic from solid, EtOH, RT) was > 38 mg/mL. For the same compound, the solubility ([4]; organic solvent or mixture, thermodynamic from solid, IPA, RT) was > 36 mg/mL, the solubility ([4]; organic solvent or mixture, thermodynamic from solid, IPA/H2O (4:1), RT) was 7 to 21 mg/mL (≈ 17.5 to 52.6 mM) and the solubility ([4]; organic solvent or mixture, thermodynamic from solid, IPA/H2O (9:1), RT) was 23 to 46 mg/mL (≈ 57.6 to 115 mM). The solubility ([4]; organic solvent or mixture, thermodynamic from solid, IPAc, RT) was > 42 mg/mL, the solubility ([4]; organic solvent or mixture, thermodynamic from solid, MIBK, RT) was > 40 mg/mL and the solubility ([4]; organic solvent or mixture, thermodynamic from solid, MTBE, RT) was > 46 mg/mL. The solubility ([4]; organic solvent or mixture, thermodynamic from solid, MeOH, RT) was > 46 mg/mL, the solubility ([4]; organic solvent or mixture, thermodynamic from solid, NMP, RT) was > 44 mg/mL and the solubility ([4]; organic solvent or mixture, thermodynamic from solid, THF, RT) was > 40 mg/mL. For the same compound, the solubility ([4]; organic solvent or mixture, thermodynamic from solid, Toluene, RT) was > 36 mg/mL, the solubility ([4]; organic solvent or mixture, thermodynamic from solid, n-Heptane, RT) was < 2.3 mg/mL and the solubility ([4]; water, thermodynamic from solid, H2O, RT) was < 2.3 mg/mL. The solubility ([5]; EtOAc) was > 40 mg/mL, the solubility ([5]; EtOH) was > 38 mg/mL and the “Solubility in IPA (in words)” value ([5]; IPA, approximate) was “high solubility”. The solubility ([5]; IPA) was > 36 mg/mL, the solubility ([5]; MeOH) was > 46 mg/mL and the solubility ([5]; acetone) was > 38 mg/mL. The solubility ([5]; acetone/n-heptane (1:1) v/v) was > 42 mg/mL and the “Solubility compared with Glycolate Type A” value ([1]; IPA and IPA/H2O (19:1, v/v), each temperature (5-60° C.)) was “much higher than that of Glycolate Type A”.

In the case of `CC[C@@H]1CN2CCc3c([nH]c4cccc(OC)c34)[C@@H]2C[C@@H]1/C(=C\OC)C(=O)OC` [Mitragynine], the “Solubility in conventional organic solvents (in words)” value ([3]; acetone, acetic acid, alcohols, chloroform and diethyl ether) is listed as “soluble” and the “Solubility in water (in words)” value ([3]; water) is listed as “insoluble”.

In the case of `O=C(O)CO.[2H][C@@]12C[C@H](/C(=C\OC)C(=O)OC)[C@H](CC)CN1CCc1c2[nH]c2cccc(OC)c12` [3-DM Glycolate], the “Results (forms obtained)” value (Grind, 4 experiments) is reported as “Glycolate Type A”, the “Results (forms obtained)” value (Liquid-vapor diffusion, 12 experiments) is reported as “Glycolate Type A, B, D, A + C” and the “Results (forms obtained)” value (Slow cooling, 6 experiments) is reported as “Glycolate Type A, B, C”. The “Results (forms obtained)” value (Slow evaporation, 7 experiments) was “Glycolate Type A, C, E”, the “Results (forms obtained)” value (Slurry at 50° C., 16 experiments) was “Glycolate Type A, C” and the “Results (forms obtained)” value (Slurry at RT, 25 experiments) was “Glycolate Type A”. For the same compound, the “Results (forms obtained)” value (Solid vapor diffusion, 12 experiments) was “Glycolate Type A, C”.

With `Cl.[2H]C12CC(C(=COC)C(=O)OC)C(CC)CN1CCc1c2[nH]c2cccc(OC)c12` (centres unmarked) [3-DM hydrochloride salt] the “Behaviour in aqueous solution” value [6] was “forms a gel”.

— patent publication US20240239798A1, “SALTS AND POLYMORPHS OF M[…] 3-DEUTEROMITRAGYNINE” (priority 2021, published 2024)
